# Values of other authors in paper PMC10650486, “Fluoroquinolone-Based Organic Salts (GUMBOS) with Antibacterial Potential” (International Journal of Molecular Sciences, 2023).
# Columns and labels:
# [1] = cited from earlier work
# [2] = tested on: E. coli; design: method as in earlier work; conditions: cited from earlier work
# [3] = tested on: S. aureus; design: method as in earlier work; conditions: cited from earlier work
# [4] = tested on: S. aureus; conditions: cited from earlier work
# [5] = tested on: E. coli O157:H7; design: method as in PMID 23447139; conditions: same E. coli O157:H7 strain; cited from earlier work
Structure (SMILES),logKO/W [1],epidemiologic cutoff value (ECOFF) [2],epidemiologic cutoff value (ECOFF) [3],MIC [4],concentrations at which growth was inhibited [5]
"O=C(O)c1cn(C2CC2)c2cc(N3CCNCC3)c(F)cc2c1=O [[Cip], ciprofloxacin]",−0.13,0.06 mg·L^−1,2 mg·L^−1,,
"COc1c(N2C[C@@H]3CCCN[C@@H]3C2)c(F)cc2c(=O)c(C(=O)O)cn(C3CC3)c12 [[Mox], moxifloxacin]",−0.28,0.25 mg·L^−1,0.25 mg·L^−1,0.032 to 2 µg/mL,
CC1(C)SC2C(NC(=O)C(N)c3ccccc3)C(=O)N2C1C(=O)O.CC1(C)SC2C(NC(=O)C(N)c3ccccc3)C(=O)N2C1C(=O)O.N=C(NCCCCCCNC(=N)NC(=N)Nc1ccc(Cl)cc1)NC(=N)Nc1ccc(Cl)cc1 [chlorhexidine di-ampicillin],,,,,0.06 to 0.12 mg/L
